Test results taken from ChEMBL document CHEMBL1157323, “Chloriolide, a 12-membered macrolide from Chloridium virescens var. chlamydosporum (NRRL 37636)” (J Nat Prod, 2006).
Active and inactive are the calls of the source.

How the values were obtained:
Type in all cases: functional, organism-based
Aspergillus flavus = assay: Antifungal activity against Aspergillus flavus NRRL 6541 at 200 ug/disk by standard disk assay
Bacillus subtilis = assay: Antibacterial activity against Bacillus subtilis ATCC 6051
Escherichia coli = assay: Antibacterial activity against Escherichia coli ATCC 25922
Fusarium verticillioides = assay: Antifungal activity against Fusarium verticillioides NRRL 25457 at 200 ug/disk by standard disk assay
Staphylococcus aureus = assay: Antibacterial activity against Staphylococcus aureus ATCC 29213

Measured: Activity

C[C@H]1CCC[C@@H](O)/C=C\[C@H](O)/C=C/C(=O)O1
inactive: Aspergillus flavus | Bacillus subtilis | Escherichia coli | Fusarium verticillioides | Staphylococcus aureus
